Test systems include BT-549 breast; A498 renal; SF-295 CNS; UACC-257 melanoma; SW-620 colon; HOP-92 NSCLC; A549 NSCLC; HCT-15 colon; HCT-116 colon; UACC-62 melanoma.
Holding throughout (test): growth of human tumour cells (NCI), 48 h

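How tested: cells in 96-well plates exposed to compound for 48 hours at five concentrations. TGI: concentration producing complete growth inhibition.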 A value given as a limit tells only on which side of the number the result lay.

In the case of `CC(C)=CCc1c(O)cc2oc(-c3ccc(O)cc3O)cc(=O)c2c1O`, the TGI is more than 76.2 µM in the experiment with BT-549 breast; more than 100 µM with A498 renal; more than 100 µM in the experiment with SF-295 CNS; more than 83.8 µM in the experiment with UACC-257 melanoma; more than 100 µM in the experiment on SW-620 colon; more than 88.6 µM in the experiment with HOP-92 NSCLC. The TGI is more than 100 µM with A549 NSCLC, more than 63.2 µM with HCT-15 colon, 61.1 µM in the experiment on HCT-116 colon and 34.6 µM in the experiment with UACC-62 melanoma.
On to `CCN(CC)C(=S)N/N=C(/c1ccccc1)c1ccccn1`, for which the TGI with BT-549 breast was more than 100 µM; in the experiment on A498 renal it was 2.38 µM; in the experiment on SF-295 CNS, 25.4 µM; with UACC-257 melanoma, 2.56 µM; in the experiment with SW-620 colon it was more than 49.4 µM; in the experiment on HOP-92 NSCLC, more than 100 µM. The figures for the TGI with A549 NSCLC, in the experiment on HCT-15 colon and with HCT-116 colon were more than 39.7 µM, more than 36.9 µM and 13.6 µM, respectively.
As for `CC(=N/NC(=S)N(C)C)/C(=N\NC(=S)N(C)C)c1ccccc1`, the TGI in the experiment on BT-549 breast was 4.63 µM; in the experiment on A498 renal, 3.12 µM; in the experiment with SF-295 CNS, 4.46 µM; in the experiment on UACC-257 melanoma it was 4.19 µM; in the experiment on SW-620 colon it was 3.97 µM; with HOP-92 NSCLC it was 3.53 µM. Further, the TGI in the experiment with A549 NSCLC was 8.56 µM; with HCT-15 colon it was 4.36 µM; in the experiment on HCT-116 colon it was 9.77 µM; in the experiment with UACC-62 melanoma, 4.44 µM.
`CC(=O)/C(=N\Nc1ccc(Cl)cc1)C(C)=Nc1ccc(C)cc1`: the TGI is more than 100 µM with BT-549 breast; 85.2 µM in the experiment on A498 renal; more than 100 µM in the experiment with SF-295 CNS; more than 100 µM with UACC-257 melanoma; more than 100 µM with SW-620 colon; 37.4 µM in the experiment on HOP-92 NSCLC. Further, the TGI in the experiment on A549 NSCLC, in the experiment with HCT-15 colon, in the experiment with HCT-116 colon and with UACC-62 melanoma was more than 100 µM throughout.
Turning to `O=C1C=CC(=O)c2c(O)c(N3CCC[C@@H]3CO)c(Cl)c(O)c21`, the TGI was determined as 3.7 µM in the experiment with BT-549 breast; 6.96 µM in the experiment with A498 renal; 3.25 µM in the experiment on SF-295 CNS; 3.28 µM with UACC-257 melanoma; 3.42 µM in the experiment on SW-620 colon; 3.04 µM in the experiment with HOP-92 NSCLC. The TGI is 4.19 µM in the experiment on A549 NSCLC, 3.35 µM in the experiment on HCT-15 colon, 2.91 µM with HCT-116 colon and 2.96 µM in the experiment with UACC-62 melanoma.
Consider `COc1cc2c(cc1OCc1ccccc1)NC(=O)[C@@H]1CCCN1C2=O`, for which the TGI with BT-549 breast, with A498 renal, with SF-295 CNS, in the experiment on UACC-257 melanoma, in the experiment on SW-620 colon and in the experiment with HOP-92 NSCLC was more than 100 µM in each case. The TGI with A549 NSCLC, with HCT-15 colon, in the experiment on HCT-116 colon and with UACC-62 melanoma was more than 100 µM throughout.
In the case of `CC1=C(C)SC(=C2Sc3c(n(C)c(=O)n(C)c3=O)S2)S1`, the TGI in the experiment on BT-549 breast was more than 100 µM; in the experiment with A498 renal, 79.4 µM; in the experiment on SF-295 CNS it was more than 100 µM; with UACC-257 melanoma it was more than 100 µM; in the experiment with SW-620 colon it was more than 100 µM; in the experiment with HOP-92 NSCLC, more than 100 µM. For the same molecule, the TGI in the experiment with A549 NSCLC is more than 100 µM; in the experiment on HCT-15 colon, more than 100 µM; in the experiment on HCT-116 colon, 27.5 µM; with UACC-62 melanoma it was more than 100 µM.
For `CC1(C)C=C(/C=C2/N(S(=O)(=O)C(F)(F)F)C(/C=C3/N(S(=O)(=O)C(F)(F)F)C(C)(C#N)CC3(C)C)=CC2(C)C)N=C1/C=C1/CC(C)(C)C(=O)N1` (stereo not given), the TGI is more than 100 µM in the experiment on BT-549 breast; more than 100 µM in the experiment on A498 renal; more than 100 µM in the experiment with SF-295 CNS; more than 100 µM in the experiment with UACC-257 melanoma; more than 100 µM in the experiment on SW-620 colon; 95.3 µM in the experiment on HOP-92 NSCLC. The TGI in the experiment on A549 NSCLC is more than 100 µM; with HCT-15 colon it was 73.6 µM; with HCT-116 colon, 42.8 µM; in the experiment with UACC-62 melanoma, 69.1 µM.
For the molecule `COc1ccc2c(c1OC)C(=O)N1C2=Cc2c(cc3c(c2OC)OCO3)CC1N(C)C` (stereo not given), the TGI in the experiment on BT-549 breast, in the experiment on A498 renal, in the experiment with SF-295 CNS, in the experiment on UACC-257 melanoma, with SW-620 colon and in the experiment on HOP-92 NSCLC was more than 100 µM throughout. In addition, the TGI in the experiment on A549 NSCLC, in the experiment on HCT-15 colon, in the experiment on HCT-116 colon and in the experiment on UACC-62 melanoma was more than 100 µM throughout.
As for `CC(C)(C)/C(O)=C\c1nc2cc(F)c(F)cc2[nH]c1=O`, the TGI in the experiment with BT-549 breast, in the experiment with A498 renal, in the experiment on SF-295 CNS, in the experiment with UACC-257 melanoma, in the experiment on SW-620 colon and in the experiment with HOP-92 NSCLC was more than 100 µM each time. For the same molecule, the TGI in the experiment on HCT-15 colon, with HCT-116 colon and in the experiment on UACC-62 melanoma was more than 100 µM each time.
In the case of `C=C1C[C@@H]2O[C@H]3[C@H]4[C@@H](C[C@@H](C)[C@@H](OC(C)=O)[C@H]42)[C@@H](C)CO[C@@]3(C)[C@H](OC(=O)CCCCCCC)CC1=O`, the TGI was found to be 36.9 µM with BT-549 breast; 32.5 µM in the experiment on A498 renal; 33.6 µM in the experiment on SF-295 CNS; 30.7 µM in the experiment on UACC-257 melanoma; 29.8 µM with SW-620 colon; 35.2 µM with A549 NSCLC. The values for the TGI with HCT-15 colon, in the experiment on HCT-116 colon and with UACC-62 melanoma were 28.9 µM, 32 µM and 32.1 µM, respectively.
Turning to `COc1cc2c(c(OC)c1)[C@H](C)N(Cc1ccccc1)C(C)C2` (stereo not given in full), the TGI in the experiment on BT-549 breast, with A498 renal, in the experiment with SF-295 CNS, in the experiment on UACC-257 melanoma, in the experiment with SW-620 colon and with A549 NSCLC was more than 100 µM in each case. For the same molecule, the TGI with HCT-15 colon, in the experiment on HCT-116 colon and in the experiment on UACC-62 melanoma was more than 100 µM each time.
Turning to `C=C1[C@@H]2CCC3[C@]4(C)C(CC[C@@]5(C)C(=O)O[C@H](O)[C@@H]45)[C@H](O)[C@]3(C2)[C@H]1OC1OC(CO)C(O)C(O)C1O` (stereo not given in full), the TGI with BT-549 breast, in the experiment with A498 renal, with SF-295 CNS, in the experiment on UACC-257 melanoma, in the experiment on SW-620 colon and with A549 NSCLC was more than 50 µM in each case. Further, the TGI in the experiment with HCT-15 colon, with HCT-116 colon and in the experiment on UACC-62 melanoma was more than 50 µM throughout.
